Experiment [1] has as its target T1, human GluN1^FA,TL/GluN3A receptors (Homo sapiens, UniProt Q8TCU5).
T1 construct: Human GluN3A (NP_597702.2) and rat GluN3B (NP_579842.2) were synthesized and subcloned into SP6 plasmids; expressed in transfected cells; host or cells: Xenopus laevis oocytes, cRNA injection (GluN1:GluN3 1:3)
Nature of the experiment: Two-electrode voltage-clamp recordings of GluN1^FA,TL/GluN3A receptors in Xenopus oocytes. The format is cell-based. The note with it: for hGluN1^FA,TL/hGluN3A (100 × Idrug/Icontrol): @ 10 μM; for Max Inhibition / % Inhibition GluN1^FATL/GluN3A: fitted maximum at saturating test compound; for Max Inhibition: 100 × (1 − Idrug/Icontrol); for remaining activity at 30 µM: read-out: hGluN1^FA,TL/hGluN3A (100 × Idrug/Icontrol at 30 μM drug); for Slope: concentration-response curve; for Slope / minimum: 1000 μM glycine; for minimum: residual response at saturating concentration. The procedure, abridged:
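Human GluN1 with human GluN3A cRNA (1:3) in oocytes, recorded 2-5 days post-injection at 23° C, holding −40 mV, in Ba2+-containing recording solution pH 7.4. Compounds screened at 10 or 30 μM; those inhibiting >20% given concentration-response fits for IC50, Hill slope and residual inhibition.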

The subject of experiment [2] is GluN1/GluN2 NMDA receptors (GluN2A, GluN2B, GluN2C, GluN2D). Nature of the experiment: Recombinant GluN1/GluN2 NMDA receptors in Xenopus oocytes (selectivity). The format is cell-based, rat.
Experiment [3] has as its target T2, rat GluN1-4a/GluN3B receptors (Rattus norvegicus, UniProt Q8VHN2).
T2 construct: Human GluN3A (NP_597702.2) and rat GluN3B (NP_579842.2) were synthesized and subcloned into SP6 plasmids; expressed in transfected cells; host or cells: Xenopus laevis oocytes, cRNA injection
Nature of the experiment: Two-electrode voltage-clamp recordings of GluN1-4a/GluN3B receptors in the presence of CGP-78608 (Xenopus oocytes). The format is cell-based. Particulars: @ 10 μM drug; 0.5 μM CGP-78608. An excerpt:
(§1) cDNA encoding human wild-type (WT) GluN1-1a (GenBank accession numbers NP_015566, hereafter GluN1) and rat GluN1-1a (NP_058706.1) were synthesized and subcloned into pGEMHE plasmid; some experiments used the rat splice variant GluN1-4a (NP_001257531.1). Human GluN3A (NP_597702.2) and rat GluN3B (NP_579842.2) were synthesized and subcloned into SP6 plasmids. For most experiments, human GluN1 was co-expressed with human GluN3A, except for mutagenesis experiments where rat GluN1 was co-expressed with human GluN3A. Rat GluN1-4a was always expressed with rat GluN3B.
(§2) Defolliculated Xenopus laevis oocytes (stage V-VI) were obtained from Ecocyte BioScience (Austin, Texas), or prepared from commercially available Xenopus ovaries (Xenopus 1, Dexter, MI) as previously described (Hansen, et al., Mol. Pharmacol., 2013). A Drummond Nanoject II (Broomall, PA) was used to inject oocytes with cRNAs encoding GluN1 and GluN3 at a 1:3 ratio in RNase-free water. The cRNA was diluted as needed to give responses with amplitudes ranging between 200-2000 nA (0.2-10 ng total cRNA). Following cRNA injection, the oocytes were stored at 15-19° C. in Barth's solution that contained (in mM) 88 NaCl, 2.4 NaHCO3, 1 KCl, 0.33 Ca(NO3)2, 0.41 CaCl2), 0.82 MgSO4, and 5 Tris-HCl (pH 7.4 with NaOH), supplemented with 1 μg/ml streptomycin (Invitrogen, Carlsbad, CA) and 100 μg/ml gentamicin (Fisher Scientific, Pittsburgh, PA). Recordings were performed 2-5 days following cRNA microinjection at room temperature (23° C.) using a two-electrode voltage-clamp amplifier (OC725, Warner Instrument, Hamilton, CT). The signal was low-pass filtered at 10-20 Hz (4-pole, −3 dB Bessel) and digitized at the Nyquist rate using PCI-6025E or USB-6212 BNC data acquisition boards (National Instruments, Austin, TX) using EasyOocyte (http://www.easyoocyte.io/). Oocytes were placed in a custom-made chamber and continuously perfused (2.5 ml/min) with oocyte recording solution containing (in mM) 90 NaCl, 1 KCl, 10 HEPES, 0.5-1.0 BaCl2, and 0.01 EDTA (pH 7.4 with NaOH). Solutions were applied by gravity, and solution exchange was controlled through a rotary valve (Hamilton, Reno, NV). Recording electrodes were filled with 0.3-3.0 M KCl, and current responses were recorded at a holding potential of −40 mV.
(§3) Response (%)=(100−minimum)/(1+([concentration]/IC50)^nH)+minimum (2) • where nH is the Hill slope, IC50 is the concentration that produces a half-maximal effect, and minimum is the degree of residual inhibition at a saturating concentration of the negative allosteric modulator.
(§4) Selected compounds were also screened in the same assay as EU1180-438 to determine their effect on GluN3B.
(In general: In two-electrode clamp one electrode senses voltage and the other passes current.)

The target in experiment [4] is T3, rat GluN1-4a/GluN3B receptors (Rattus norvegicus, UniProt P35439+Q8VHN2).
T3 construct: Human GluN3A (NP_597702.2) and rat GluN3B (NP_579842.2) were synthesized and subcloned into SP6 plasmids; expressed in transfected cells; host or cells: Xenopus laevis oocytes, cRNA injection
Described as above. The format is cell-based. The note with it: 0.5 μM CGP-78608.
Description: as §1, §2, §3, §4

The next experiment addresses GluN1 (Homo sapiens, UniProt Q05586). Particulars: read-out: EC50 (glycine binding GluN1); cited from earlier work.
Another experiment relates to GluN1/GluN3 receptors. Particulars: hydrochloride; cited from earlier work.
Where [5] appears, read: hGluN1^FA,TL/hGluN3A, read-out: IC50.
[6] abbreviates: hGluN1^FA,TL/hGluN3A, read-out: IC50 (95% CI) GluN3A.
Where [7] appears, read: pH 7.4, holding potential −40 mV, read-out: EC50, (95% CI) GluN1^FATL/GluN3A.
The mark [8] stands for this setting: responses activated by 1000 μM glycine, pH 7.4, read-out: IC50.

Results on 15 compounds are retold here after US20230339854A1, “Negative Allosteric Modulation of GluN3-Containing N-Methyl-D-Aspartate Receptors” (Emory University, priority 2020, published 2023).

“Also recorded” adds a separate entry of the source. Where two headings read alike, the source gives them in different places.

T2 sequence (Q8VHN2 25-1002, other chains not shown): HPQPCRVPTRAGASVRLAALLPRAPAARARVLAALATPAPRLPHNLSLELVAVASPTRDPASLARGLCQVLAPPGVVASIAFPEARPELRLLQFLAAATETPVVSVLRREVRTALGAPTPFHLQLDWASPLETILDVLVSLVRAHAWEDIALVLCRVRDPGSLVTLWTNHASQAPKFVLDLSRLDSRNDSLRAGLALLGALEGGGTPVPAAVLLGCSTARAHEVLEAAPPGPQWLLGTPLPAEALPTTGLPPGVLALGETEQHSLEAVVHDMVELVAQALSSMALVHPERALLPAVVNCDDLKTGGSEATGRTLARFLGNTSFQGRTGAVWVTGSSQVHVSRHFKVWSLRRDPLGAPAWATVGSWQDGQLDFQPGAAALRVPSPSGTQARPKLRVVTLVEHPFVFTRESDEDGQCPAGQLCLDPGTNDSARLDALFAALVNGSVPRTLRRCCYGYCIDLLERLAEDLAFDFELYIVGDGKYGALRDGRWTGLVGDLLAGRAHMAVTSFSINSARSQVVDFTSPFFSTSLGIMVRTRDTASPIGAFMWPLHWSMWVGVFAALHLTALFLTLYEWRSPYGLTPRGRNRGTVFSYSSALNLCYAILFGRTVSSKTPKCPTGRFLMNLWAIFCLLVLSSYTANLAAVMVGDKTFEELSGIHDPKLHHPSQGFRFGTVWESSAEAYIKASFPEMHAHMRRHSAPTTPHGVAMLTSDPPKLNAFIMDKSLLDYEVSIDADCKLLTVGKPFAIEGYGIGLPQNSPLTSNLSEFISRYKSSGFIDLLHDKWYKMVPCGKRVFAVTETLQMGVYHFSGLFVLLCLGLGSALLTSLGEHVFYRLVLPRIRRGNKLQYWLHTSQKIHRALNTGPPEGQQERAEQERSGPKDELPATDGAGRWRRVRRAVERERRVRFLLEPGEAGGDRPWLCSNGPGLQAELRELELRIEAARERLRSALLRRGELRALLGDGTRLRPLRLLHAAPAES
T3 sequence (Q8VHN2 25-1002, other chains not shown): as above

As to `COc1ccc(OCC(c2ccc(OC(C)C)cc2)N2Cc3ccccc3C2=O)cc1` (stereo not shown) [EU1180-481, 2-(1-(4-isopropoxyphenyl)-2-(4-methoxyphenoxy)ethyl)isoindolin-1-one], in experiment [1], the “hGluN1^FA,TL/hGluN3A (100 × Idrug/Icontrol)” value was determined as 57% and the “Max Inhibition” value is recorded as 54%. The IC50 in experiment [1] (setting [5]) was 3.12 µM. Besides, the IC50 in experiment [1] (setting [6]) worked out at 3.12 µM. Besides, in experiment [2] (30 μM), the “activity toward recombinant GluN1/GluN2 NMDA receptors (GluN2A-D)” value is reported as “no detectable activity”.
On to `Cc1cccc(OCC(c2ccc(OC(C)C)cc2)N2Cc3ccc(C(F)(F)F)cc3C2=O)n1` (stereo not shown) [EU1180-511], for which the remaining activity at 30 µM in experiment [1] turned out to be 94%. Besides, the “activity toward recombinant GluN1/GluN2 NMDA receptors (GluN2A-D)” value in experiment [2] is on record as “None of them showed any activity”.
Regarding `Cc1cccc(OCC(c2ccc(OC(C)C)cc2)N2Cc3ccc(Cl)cc3C2=O)n1` (stereo not shown) [EU1180-509, 6-chloro-2-(1-(4-isopropoxyphenyl)-2-((6-methylpyridin-2-yl)oxy)ethyl)isoindolin-1-one], the “hGluN1^FA,TL/hGluN3A (100 × Idrug/Icontrol)” value in experiment [1] is recorded as 81%. For the same compound, the “activity toward recombinant GluN1/GluN2 NMDA receptors (GluN2A-D)” value in experiment [2] is given as “None of them showed any activity”.
For `COc1ccc(OCC(c2ccc(OC)cc2)N2Cc3ccccc3C2=O)cc1` (single isomer, unassigned; (+)) [(+) EU1180-438, 2-(2-(4-methoxyphenoxy)-1-(4-methoxyphenyl)ethyl)isoindolin-1-one], the “rat GluN1-4a/GluN3B + CGP (100 × Idrug/Icontrol)” value in experiment [3] was found to be 28% @ 10 μM drug. Further, in experiment [1], the Slope amounted to 1.2 and the minimum was found to be 4%. Further, the “% Inhibition GluN1^FATL/GluN3A” value in experiment [1] (pH 7.4) is recorded as 96%^a, (n = 22). For the same compound, in experiment [1] (setting [7]), the IC50 was determined as 7.1 µM. Moreover, the IC50 in experiment [1] (setting [8]) came out at 7.1 µM.
`COc1ccc(OCC(c2ccc(OC)cc2)N2Cc3ccccc3C2=O)cc1` (single isomer, unassigned; (-)) [(−) EU1180-438, 2-(2-(4-methoxyphenoxy)-1-(4-methoxyphenyl)ethyl)isoindolin-1-one]: the “rat GluN1-4a/GluN3B + CGP (100 × Idrug/Icontrol)” value in experiment [3] came out at 70% @ 10 μM drug. For the same compound, in experiment [1], the Slope was 1.4 and the minimum came to 16%. For the same compound, the “% Inhibition GluN1^FATL/GluN3A” value in experiment [1] (pH 7.4) is 84%^a, (n = 20). In addition, the IC50 in experiment [1] (setting [7]) worked out at 13 µM. Also, the IC50 in experiment [1] (setting [8]) was found to be 13 µM.
On to `COc1ccc(OCC(c2ccccc2)N2CCc3ccccc3C2=O)cc1` (stereo not shown) [EU1180-488, 2-(2-(4-methoxyphenoxy)-1-phenylethyl)-3,4-dihydroisoquinolin-1(2H)-one], for which the “rat GluN1-4a/GluN3B + CGP (100 × Idrug/Icontrol)” value in experiment [3] came out at 38% @ 10 μM drug. In addition, the IC50 was 3.43 µM in experiment [4] and 3.29 µM in experiment [1] (setting [6]). Besides, the “Max Inhibition” value in experiment [1] was 88%. The “activity toward recombinant GluN1/GluN2 NMDA receptors (GluN2A-D)” value in experiment [2] (30 μM) is listed as “no detectable activity”.
For the compound `Cc1cccc(OCC(c2ccc(OC(C)C)cc2)N2Cc3cc(Cl)ccc3C2=O)n1` (stereo not shown) [EU1180-510, 5-chloro-2-(1-(4-isopropoxyphenyl)-2-((6-methylpyridin-2-yl)oxy)ethyl)isoindolin-1-one], the remaining activity at 30 µM in experiment [1] is 94%. In addition, the “activity toward recombinant GluN1/GluN2 NMDA receptors (GluN2A-D)” value in experiment [2] is given as “None of them showed any activity”.
A word on the EC50: it is the concentration that produces a half-maximal response. As to `NCC(=O)O` [glycine], on GluN1, the EC50 was 0.1 to 1 µM.
For `COc1ccc(OCC(c2ccc(OC)cc2)N2CCc3ccccc3C2=O)cc1` (stereo not shown) [EU1180-489, 2-(2-(4-methoxyphenoxy)-1-(4-methoxyphenyl)ethyl)-3,4-dihydroisoquinolin-1(2H)-one], in experiment [3], the “rat GluN1-4a/GluN3B + CGP (100 × Idrug/Icontrol)” value is on record as 31% @ 10 μM drug. Also, the IC50 in experiment [4] was determined as 3.57 µM; in experiment [1] (setting [6]) it was 10.8 µM. In experiment [1], the “Max Inhibition” value was 44%. For the same compound, the “activity toward recombinant GluN1/GluN2 NMDA receptors (GluN2A-D)” value in experiment [2] (30 μM) is “no detectable activity”.
Take `COc1ccc(OCC(c2ccccc2)N2Cc3ccccc3C2=O)cc1` (stereo not shown) [EU1180-487, 2-(2-(4-methoxyphenoxy)-1-phenyl-ethyl)isoindolin-1-one]: the “rat GluN1-4a/GluN3B + CGP (100 × Idrug/Icontrol)” value in experiment [3] was found to be 42% @ 10 μM drug. Further, the IC50 in experiment [4] was found to be 6.49 µM; in experiment [1] (setting [6]) it was 10.8 µM. The “Max Inhibition” value in experiment [1] is on record as 78%. Further, in experiment [2] (30 μM), the “activity toward recombinant GluN1/GluN2 NMDA receptors (GluN2A-D)” value is “no detectable activity”.
With `COc1ccc(OCC(c2ccc(OC)c(OC)c2)N2Cc3ccccc3C2=O)cc1` (stereo not shown) [EU1180-494, 2-(1-(3,4-dimethoxyphenyl)-2-(4-methoxyphenoxy)ethyl)isoindolin-1-one], the “Max Inhibition” value in experiment [1] was 3%. Moreover, in experiment [2] (30 μM), the “activity toward recombinant GluN1/GluN2 NMDA receptors (GluN2A-D)” value is on record as “no detectable activity”.
As to `CCOc1ccc(OCC(c2ccc(OC(C)C)cc2)N2Cc3ccccc3C2=O)cc1` (stereo not shown) [EU1180-499, 2-(2-(4-ethoxyphenoxy)-1-(4-isopropoxyphenyl)ethyl)isoindolin-1-one], the “hGluN1^FA,TL/hGluN3A (100 × Idrug/Icontrol)” value in experiment [1] is recorded as 67%. Further, the IC50 in experiment [1] (setting [5]) turned out to be 2.1 µM. In addition, the “activity toward recombinant GluN1/GluN2 NMDA receptors (GluN2A-D)” value in experiment [2] is given as “None of them showed any activity”.
Taken in the same sequence, the figures for `Cc1cccc(OCC(c2ccc(OC(C)C)cc2)N2Cc3ccccc3C2=O)n1` (stereo not shown) [EU1180-508, 2-(1-(4-isopropoxyphenyl)-2-((6-methylpyridin-2-yl)oxy)ethyl)isoindolin-1-one] were 28%, 3.93 µM and “None of them showed any activity”.
Take `C[C@@H](NCc1cc(Br)cc2[nH]c(=O)c(=O)[nH]c12)P(=O)(O)O.Cl` [CGP-78608, [(1S)-1-[[(7-bromo-1,2,3,4-tetrahydro-2,3-dioxo-5-quinoxalinyl)methyl]amino]ethyl] phosphonic acid hydrochloride]: in the experiment with GluN1/GluN3 receptors, the “effect on activation of GluN1/GluN3 receptors” value is “dramatically enhance activation of GluN1/GluN3 receptors; also recorded: strongly enhance GluN1/GluN3A current responses”.
Turning to `COc1ccc(OCC(c2c(F)cc(OC)cc2F)N2Cc3ccc(Cl)cc3C2=O)cc1` (stereo not shown) [EU1180-548, 6-Chloro-2-(1-(2,6-difluoro-4-methoxyphenyl)-2-(4-methoxyphenoxy)ethyl)isoindolin-1-one], in experiment [1], the remaining activity at 30 µM came out at 90%.
